How the values were obtained:
[1] = Approximate solubility of Form A: saturated solutions, gravimetric determination after solvent removal; type: physicochemical
Experimental: Approximate solubility was measured by preparation of saturated solutions in various solvents and gravimetric determination of dissolved substance after solvent removal.

[2] = Stability test, thermal treatment (sealed ampoules, 100° C., HPLC purity); type: physicochemical; settings: 1 week
Experimental: (§1) HPLC: HPLC measurements were carried out with a HP LC1090M, Column Symmetry C18, 3.0·150 mm.
The compounds of Examples 3(b) (polymorph A), 25 (polymorph B), and 36 (polymorph C) were placed in sealed ampoules and exposed for 1 week to 100° C. […] The products where analyzed by HPLC and the purity was detected to indicate chemical stability via decomposition.

[3] = Stability test, exposure to humidity (open containers, 60° C., 75% relative humidity); type: physicochemical; settings: 1 week and 2 weeks, listed as polymorph A
Experimental: as §1
The compounds of Examples 3(b) (polymorph A), 25 (polymorph B), and 36 (polymorph C) were placed in open containers and exposed 1 week and 2 weeks at 60° C. and 75% relative humidity. In polymorph A, a water content of 2.8% was detected and the HPLC purity was 80%.

[4] = Water absorption and behaviour on exposure to relative humidity; type: physicochemical
[5] = Stability of the crystal forms (general findings); type: physicochemical; settings: ambient temperatures
[6] = Solubility statements in the description
[7] = physchem; settings: aqueous solubility

`CC(C)COc1ccc(CNC(=O)N(Cc2ccc(F)cc2)C2CCN(C)CC2)cc1.CC(C)COc1ccc(CNC(=O)N(Cc2ccc(F)cc2)C2CCN(C)CC2)cc1.O=C(O)C(O)C(O)C(=O)O` [Form A, N-(4-fluorobenzyl)-N-(1-methylpiperidin-4-yl)-N′-(4-(2-methylpropyloxy)phenylmethyl)carbamide hemi-tartrate] showed a solubility ([1]; aqueous with cosolvent or surfactant or cyclodextrin, thermodynamic from solid, acetone/water (1:1), read-out: Solubility) of over 200 mg/mL, a solubility ([1]; ethanol) of over 10 mg/mL and a solubility ([1]; organic solvent or mixture, thermodynamic from solid, 1,4-dioxane, read-out: Solubility) of about 2 mg/mL. The solubility ([1]; organic solvent or mixture, thermodynamic from solid, 2-propanol, read-out: Solubility) was about 1 mg/mL, the solubility ([1]; organic solvent or mixture, thermodynamic from solid, 2-propanol/water (9:1), read-out: Solubility) was under 1 mg/mL and the solubility ([1]; organic solvent or mixture, thermodynamic from solid, acetone, read-out: Solubility) was about 2 mg/mL. It also gave a solubility ([1]; organic solvent or mixture, thermodynamic from solid, acetonitrile, read-out: Solubility) of about 2 mg/mL, a solubility ([1]; organic solvent or mixture, thermodynamic from solid, dichloromethane, read-out: Solubility) of over 30 mg/mL and a solubility ([1]; organic solvent or mixture, thermodynamic from solid, dimethylsulfoxide, read-out: Solubility) of over 200 mg/mL. The solubility ([1]; organic solvent or mixture, thermodynamic from solid, ethyl acetate, read-out: Solubility) was under 1 mg/mL, the solubility ([1]; organic solvent or mixture, thermodynamic from solid, methanol, read-out: Solubility) was over 100 mg/mL and the solubility ([1]; organic solvent or mixture, thermodynamic from solid, methyl ethyl ketone, read-out: Solubility) was under 1 mg/mL. For the same molecule, the solubility ([1]; organic solvent or mixture, thermodynamic from solid, t-butyl methyl ether, read-out: Solubility) was under 1 mg/mL, the solubility ([1]; organic solvent or mixture, thermodynamic from solid, toluene, read-out: Solubility) was under 1 mg/mL and the solubility ([1]; tetrahydrofuran) was over 5 mg/mL. For the same molecule, the solubility ([1]; thermodynamic from solid, water, read-out: Solubility) was over 300 mg/mL, the “State of the material after thermal treatment” value [2] was “formed a deliquescent compact material” and the “HPLC purity after thermal treatment” value ([2]; listed as polymorph A) was 25.9%. For the same molecule, the “HPLC purity after exposure to humidity” value [3] was 80%, the “water content after exposure to humidity” value [3] was 2.8% and the “Water uptake when exposed to humidity” value ([4]; above 75% relative humidity) was “considerable water uptake”. The “Stability under ambient water partial pressures” value ([4]; relative humidities between 20% and 75%) was “sufficient stability”, the “Stability at ambient temperatures” value [5] was “stable” and the “amount that can be dissolved in tetrahydrofuran” value ([6]; tetrahydrofuran, reflux temperature) was “about 200 mg/ml”. For the same molecule, the “Solubility in water or aqueous systems (in words)” value ([6]; water) was “well soluble”.
`CC(C)COc1ccc(CNC(=O)N(Cc2ccc(F)cc2)C2CCN(C)CC2)cc1` [Form E, N-(4-fluorobenzyl)-N-(1-methylpiperidin-4-yl)-N′-(4-(2-methylpropyloxy)phenylmethyl)carbamide hemi-tartrate] gave a solubility [7] of over 200 mg/mL.

Source: patent US7790899B2, “Synthesis of N-(4-fluorobenzyl)-N-(1-methylpiperidin-4-yl)-N′-(4-(2-methylpropyloxy)phenylmethyl)carbamide and its tartrate salt and crystalline forms” (ACADIA Pharmaceuticals, Inc., priority 2004, dated 2010)
